# Test results reported in ChEMBL document CHEMBL1131551, “Carbocyclic frenolicin analogues: novel anticoccidial agents” (1998).
# System: Eimeria
# Test: In vitro ability to disrupt infectious activity of Eimeria sporozoites expressed as potency relative to frenolicin (B=1)
# Assay type: functional
row,Compound,Relative potency
1,O=C1CC2CCC3=C(C(=O)c4cccc(O)c4C3=O)C2O1 (stereo not drawn),0.033
2,O=C1C[C@H]2CCC3=C(C(=O)c4ccccc4C3=O)[C@H]2O1,0.167
3,CC(=O)OC1CCCC2=C1C(=O)c1ccccc1C2=O (stereo not drawn),0.001
